Results: patent US4639437A, “Kit or device and method for administering gangliosides and derivatives thereof by inhalation and pharmaceutical compositions suitable therefor” (Fidia, S.p.A., priority 1984, dated 1987)
Read-outs that look alike come from different tables or passages of the source.

How the values were obtained:
[1] = design: species or system male Sprague Dawley rats; conditions: rat, in vivo, 0.25 mg/kg, 300 min
From the text: (§1) Two animal species were used, i.e., rats and rabbits.
(§2) Monosialotetrahexosylganglioside GM1 labeled on the sphingosine moiety according to the method of Tettamanti et al. (in "Gangliosides in Neurological and Neuromuscular Function, Development and Repair" Eds. M. M. Rapport, A. Gorio, Raven Press. (N.Y.) 1981, p. 225-240) was used as a representative ganglioside molecule.
(§3) The ganglioside mixture used was similar to the natural mixture that is obtained by extraction and purification from bovine cerebral cortex. The mixture was made up by compounding the single ganglioside fractions in the following percent proportions:
(§4) The monosialotetrahexosylganglioside GM1 contained a ^3 H-label on sphingosine as specified under item (a) as a tracer for the mixture.
(§5) Labeled inner ester derivative of monosialoganglioside was obtained from monosialoganglioside labeled on the sphingosine moiety according to the method cited under item (a). The inner esterification procedure according to the method described in applicant's co-pending U.S. application Ser. No. 290,106, filed on Aug. 4, 1981, was used for this labeled ganglioside to obtain the labeled inner ester derivative. […]
(§6) After treatment the animals were housed in metabolic cages. […] The total radioactivity of the samples was counted by means of a Tricarb scintillator (Packard). […]

[2] = design: species or system male New Zealand rabbits; conditions: rabbit, in vivo, 0.25 mg/kg, 300 min
From the text: as §1, §2, §3, §4, §5, §6

[3] = design: species or system male Sprague Dawley rats; conditions: rat, in vivo, 0.25 mg/kg, 300 min; remark: listed apart in the source
From the text: as §1, §2, §3, §4
as §5, with “Aug.” for “Aug. 4, 1981, was used for this labeled ganglioside to obtain the labeled inner ester derivative.”
After treatment the animals were housed in metabolic cages. […] The total radioactivity of the samples was counted by means of a Tricarb scintillator (Packard).
(§7) However, increased pulmonary absorption of the compounds after nebulization of the aqueous solutions was recorded (See Table 2).

[4] = design: species or system male New Zealand rabbits; conditions: rabbit, in vivo, 0.25 mg/kg, 300 min; remark: listed apart in the source
From the text: as §1, §2, §3, §4
as §5, with “Aug.” for “Aug. 4, 1981, was used for this labeled ganglioside to obtain the labeled inner ester derivative.”
as §6, §7

[5] = design: species or system male Sprague Dawley rats; conditions: rat, in vivo, 0.25 mg/kg, 300 min; remark: listed apart in the source
From the text: as §1, §2, §3, §4, §5, §6

[6] = design: species or system male New Zealand rabbits; conditions: rabbit, in vivo, 0.25 mg/kg, 300 min; remark: listed apart in the source
From the text: as §1, §2, §3, §4, §5, §6

Compound | Bioavailability (Intramuscular route = 100) [1] | Bioavailability (Intramuscular route = 100) [2] | Bioavailability (Intramuscular route = 100) [3] | Bioavailability (Intramuscular route = 100) [4] | Bioavailability (Intramuscular route = 100) [5] | Bioavailability (Intramuscular route = 100) [6]
Monosialotetrahexosylganglioside GM1 [Monosialoganglioside] | 10.5% | 12% | 34% | 32% | 85 | 87
CCCCCCCCCCCCC/C=C/[C@@H](O)[C@H](CO[C@@H]1O[C@H](CO)[C@@H](O[C@@H]2O[C@H](CO)[C@H](O[C@@H]3O[C@H](CO)[C@H](O)[C@H](O[C@@H]4O[C@H](CO)[C@H](O)[C@H](O)[C@H]4O)[C@H]3NC(C)=O)[C@@H]3O[C@@]4(C[C@H](O)[C@@H](NC(C)=O)[C@H]([C@H](O)[C@H](O)CO)O4)C(=O)O[C@@H]23)[C@H](O)[C@H]1O)NC(=O)CCCCCCCCCCCCCCCCC [Monosialoganglioside inner ester] | 12% | 11.5% | 35% | 33.5% | 80 | 85
